According to patent publication US20150073033A1, “BIOMARKERS FOR CANCER CHARACTERIZATION AND TREATMENT” (Board of Regents, The University of Texas System, priority 2011, published 2015):

Key:
Type in all cases: cell-based, human
NF-κB = experiment: TNFα-induced, NF-κB-dependent IκBα promoter luciferase reporter; conditions: U87/EGFR cells; NF-κB activation inhibitor II 7 μM 30 min before TNFα 10 ng/mL 8 h
Procedure: FIG. 63: PKC, NF-κB, PI3-K, and CK2 are inhibited by their inhibitors. A, B: U87/EGFR cells were treated with Bis-I (2 μM) (A) or Go6976 (2 μM) (B) for 30 min before 12-O-tetradecanoylphorbol-13-acetate (TPA) ([…]) for 8 h. Immunoblotting analyses were performed with the indicated antibodies. C: U87/EGFR cells transiently expressing a luciferase reporter vector containing the IκBα promoter were pretreated with or without NF-κB activation inhibitor II (7 μM) for 30 min before TNFα (10 ng/mL) for 8 h. The relative levels of luciferase activity were normalized to the levels of untreated cells and to the levels of luciferase activity of the Renilla control plasmid. Data represent the mean±standard deviation of three independent experiments. […] Immunoblotting analyses were performed with the indicated antibodies.
The luciferase reporter vector pGL3-promoter containing either the WT or a mutated PKM promoter fragment or a luciferase reporter vector containing the IκBα promoter was transfected into U87/EGFR cells, RelA+/+, or RelA−/− fibroblasts seeded in 24-well plates at 1.5×10^4 cells/well. Twelve hours after transfection, the medium was replaced with 0.1% serum for another 12-24 h, and EGF (100 ng/mL) was added 12 h before harvesting. […] cell extract were used for measuring luciferase activity. […]

PKM2 expression = experiment: EGF-induced PKM2 upregulation, immunoblotting; conditions: U87/EGFR cells; pretreatment before EGF 100 ng/mL 12 h; AG1478 1 μM, cycloheximide 200 μg/mL, Bis-I 2 μM, Go6976 2 μM, NF-κB activation inhibitor II 7 μM, AKT inhibitor 10 μM, TBB 50 μM, U73122 2 μM
Procedure: FIG. 56: EGFR activation results in upregulation of PKM2 expression. A-D: Immunoblotting analyses were performed with or without the indicated antibodies. A: The indicated cell lines were treated with EGF (100 ng/mL) for 12 h. B: U87 cells were stably transfected with plasmids expressing EGFR or EGFRvIII. […] D: U87/EGFR cells were pretreated with or without cycloheximide (CHX) (200 μg/mL) for 30 min before EGF (100 ng/mL) treatment for 12 h. […] The relative mRNA levels of PKM2 and PKM1 were normalized to the levels of untreated cells and β-actin mRNA. Data represent the mean±SD of three independent experiments.
FIG. 57: EGF increases PKM2 expression in a PKC- and NF-κB-dependent manner. A-D, H: Immunoblotting analyses were performed with the indicated antibodies. […] ChIP assay was performed with an anti-RelA antibody for immunoprecipitation, followed by PCR with PKM promoter-specific primers. F: An oligonucleotide containing the putative WT or mutated NF-κB binding sequence was labeled using [γ-^32P] ATP and T4 polynucleotide kinase. […] Samples were subjected to 5% polyacrylamide gel electrophoresis, and the dried gel was exposed to x-ray film. […] The relative levels of luciferase activity were normalized to the levels of untreated cells and to the levels of luciferase activity of the Renilla control plasmid. Data represent the mean±standard deviation of three independent experiments.
(§1) FIG. 58: PKCε downstream from PLCγ1, rather than TAK1, activates IKKβ and subsequently increases PKM2 expression. […] B: U87/EGFR cells were treated with TNFα (10 ng/mL) for the indicated time. C: U87/EGFR cells were treated with or without EGF (100 ng/mL) or TNFα (10 ng/mL) for 4 h. […] HIF1α was immunodepleted from the cell lysates by incubation with an anti-HIF1α antibody, which was followed by a ChIP assay with an anti-FLAG antibody for immunoprecipitation of FLAG-RelA and PCR analysis with PKM promoter-specific primers. […] F: 293T cells were transiently transfected with constitutively active (+) or kinase-dead (−) PKC mutants. […] H, I: 293T cells were transiently transfected with the indicated plasmids.

PTBP1 = PTBP1 protein expression upon EGF stimulation; conditions: U251 cells; NF-κB activation inhibitor II 7 μM 30 min before EGF 100 ng/mL 8 h
Procedure: FIG. 64: EGF increases PKM2 expression in a RelA- and PTBP1-dependent manner. […] Data represent the mean±standard deviation of three independent experiments. […] Immunoblotting analyses were performed with the indicated antibodies. C: RelA deficiency inhibits EGF-increased mRNA levels of PKM2, but not of PKM1. mRNA expression levels of PKM2 and PKM1 in RelA^+/+ and RelA^−/− fibroblasts treated with or without EGF (100 ng/mL) for 8 h were measured by real-time quantitative RT-PCR analysis. β-actin mRNA from the same cDNA library was amplified as a control. The relative mRNA levels of PKM2 (left panel) and PKM1 (right panel) were normalized to the levels of untreated cells and β-actin mRNA. Data represent the mean±SD of three independent experiments. D: PTBP1 depletion blocked EGF-induced PKM2 mRNA expression. […] The relative mRNA levels of PKM2 and PKM1 were normalized to the levels of untreated cells and β-actin mRNA. Data represent the mean±SD of three independent experiments. […] U87/EGFR cells transiently expressing a luciferase reporter vector containing the IκBα promoter were treated with or without TNFα (10 ng/mL) or EGF (100 ng/mL) for 8 h. The relative levels of luciferase activity were normalized to the levels of untreated cells and to the levels of luciferase activity of the Renilla control plasmid. Data represent the mean±standard deviation of three independent experiments.

IKKβ = experiment: EGF-induced IKKβ activation, immunoblotting; conditions: U87/EGFR cells; U73122 2 μM 30 min before EGF 100 ng/mL 12 h
Procedure: as §1

Row | TNFα-induced and NF-κB-dependent IκBα promoter activation (NF-κB) | SMILES | EGF-induced PKM2 upregulation/expression (PKM2 expression) | PTBP1 protein expression (PTBP1) | EGF-induced IKKβ activation (IKKβ)
1 | successfully blocked | Cc1ccc(NCCCc2ccccc2)c(N)c1 [NF-κB activation inhibitor II] | largely abrogated | not affected | –
2 | – | COc1ccc2c(c1)CC[C@@H]1[C@@H]2CC[C@]2(C)[C@@H](NCCCCCCN3C(=O)C=CC3=O)CC[C@@H]12 [U73122] | abrogated | – | abrogated
